In patent publication US9540615B2, “Combined chemical and genetic approaches for generation of induced pluripotent stem cells” (The Scripps Research Institute, priority 2008, dated 2017):

Experiments:
[1] = system: 129 MEFs transduced with OK (Oct4 and Klf4); experiment: Screen for iPSC generation from OK-transduced 129 MEFs (ESC-like colony morphology, ALP staining); format: cell-based, mouse
Experimental: Unmodified MEFs derived from E13-14 embryos of the 129 mice were used for the initial screen. MEFs were plated on Matrigel at 3.5×10^4 cells/well of a 6-well plate and transduced with OK (retroviral vectors expressing Oct4 and Klf4) alone. Within 14-21 days, treated cells were assessed for the appearance of colonies that had the characteristic embryonic stem cell (ESC), colony morphology and were positive for the pluripotency marker alkaline phosphatase (ALP). Such OK-transduced cells generated only a few small non-compact colonies, which were weakly positive for ALP expression. These colonies initially appeared within 21 days after viral transduction and were difficult to expand. Therefore, such assay system offered a clean background for the identification of small molecules having desirable reprogramming inducing activity. Using this system, compounds from a library of around 2000 known small molecules (see Experimental Procedures below) were screened and were identified as hits when they induced the appearance of ESC colonies that were strongly positive for ALP within 14-21 days after treatment. This image-based method provided a more accurate assessment of reprogramming as compared to homogenous reporter-based assay. BIX appeared to have the strongest effect with reproducible induction of more than 1-2 compact ESC-like colonies with high ALP expression. We observed that when MEFs were treated with BIX after OK viral transduction, compact colonies with strong ALP expression could be readily detected within approximately 14-21 days. These cells were also positive for Nanog, Oct4 and SSEA-1 expression. […] However, the reprogramming efficiency in MEFs transduced with OK and treated with BIX was still low, about 2 colonies/3.5×10^4 cells, in comparison to the four factor-induced reprogramming of MEFs or the OK/BIX NPC reprogramming (Shi, Y. et al., Cell Stem Cell, 2:525-528 (2008)). Therefore, we conducted a second screen using a similar protocol, but where BIX was added to the basal media after OK viral transduction. This provided a more permissive platform to identify new small molecules that could further improve reprogramming efficiency. More importantly, this second screen could facilitate discovery of small molecules that impact reprogramming in a more specific manner, for example by acting on signal transduction pathways rather than on histone or DNA modifying enzymes. In this second screen, we again assayed the library of around 2000 known small molecules (see Experimental Procedures), and confirmed two compounds that were able to act in a synergistic manner with BIX to improve reprogramming based on the criteria of the screen. […] Therefore, RG108 was not pursued further for this study. […]

[2] = system: OG2 MEFs transduced with OK (Oct4 and Klf4); experiment: iPSC generation from OK-transduced OG2 MEFs (GFP+ colonies), including second synergist screen with BIX; format: cell-based, mouse; settings: OK transduced OG2 MEFs; 3 independent experiments, standard deviation; OK alone 0.5±0.7
Experimental: Primary 129S2/SvPasCrlf (primary screen) or ROSA26^+/−/OG2^+/− (secondary screen) MEFs were plated onto Matrigel (1:50; BD Biosciences, Bedford, Mass.) coated dishes at a density of 3.5×10^4 cells per well of a 6-well plate. Twenty-four hours later, these cells were transduced overnight with defined retroviruses at 37° C., 5% CO2. Twelve to fourteen hours later, the media on the transduced cells was changed to mESC medium [Knockout DMEM, 10% ES-qualified FBS, 10% Knockout serum replacement, 1% Glutamax, 1% Non-essential amino acids, penicillin/streptomycin, 0.1 mM β-mercaptoethanol, 1% EmbryoMax ESC Qualified Nucleosides (Millipore, Temecula, Calif.), and 10^3 U/ml LIF (Millipore)] (all products were from Invitrogen, Carlsbad, Calif., except where mentioned). On that same day, individual small molecules from our known drug collection were added to the cells at a range between 0.5 and 2 μM. Compound treatment was continued for 10-14 days; the cells were fixed and stained on day 14-21 using a standard ALP detection kit (Millipore). For the second screen, 1 μM BIX was added to the mESC medium 1 day after transduction. Five days later, in addition to 1 μM BIX, individual small molecule from the known drug collection was added to each well, at a range between 0.5 and 2 μM. Mouse ESC media with defined small molecules was refreshed every three days until colonies with a similar morphology to mESCs were observed, which was usually between 14-21 days after transduction. […] Further characterization studies and repeats were carried either on primary 129S2/SvPasCrlf or ROSA26^+/−/OG2^+/− MEFs. When ROSA26^+/−/OG2^+/− MEFs were used, the iPSC colonies could also be identified through GFP expression, as a marker of Oct4 expression. Once iPSC colonies were identified, they were picked for expansion on MEF feeder cells in mESC medium.

COc1cc2nc(N3CCCN(C)CC3)nc(NC3CCN(Cc4ccccc4)CC3)c2cc1OC [BIX01294]
reprogramming efficiency ([1]; MEFs transduced with OK and treated with compound): about 2 colonies/3.5×10^4 cells | number of ALP+ colonies that closely resemble the mESC morphology ([1]; OK-transduced MEFs): about 2 colonies | induction of compact ESC-like colonies with high ALP expression ([1]; primary screen, compounds 0.5-2 μM, 14-21 days, 3.5×10^4 cells/well): 1-2 colonies | number of GFP+ colonies (reprogramming efficiency) [2]: 2.5±0.7 colonies per 3.5×10^4 cells
